Structures can show the parent of a compound that is named as a salt.
Key:
[1] = biological target: Cat L (UniProt P07711); assay: Cathepsin enzyme inhibition assay (fluorogenic peptide substrate Z-Val-Val-Arg-AMC), Cathepsin L; assay type: biochemical, human and mouse; settings: enzyme 1 nM, substrate 20 μM, pH 6.5; read-out: CatL IC50
Protocol: (§1) Cathepsin Enzyme Inhibition Assay
(§2) Enzyme activity is measured by observing the increase in fluorescence intensity caused by cleavage of a peptide substrate containing a fluorophore whose emission is quenched in the intact peptide.
(§3) Assay buffer: 100 mM potassium phosphate pH 6.5, EDTA-Na 5 mM, Triton X-100 0.001%, DDT 5 mM.
(§4) Enzymes (all at 1 nM): human and mouse Cathepsin S, Cat K, Cat B, Cat L Substrate (20 μM): Z-Val-Val-Arg-AMC, except for Cat K which uses Z-Leu-Arg-AMC (both from Bachem).
(§5) AMC=7-Amino-4-Methyl-Coumarin.
Excitation 360 nm, Emission 465 nm.
Enzyme is added to the substance dilutions in 96-well microtitre plates and the reaction is started with substrate. Fluorescence emission is measured over 20 minutes, during which time a linear increase is observed in the absence of inhibitor. IC50 are calculated by standard methods. The results are expressed in μM in the following table.

[2] = biological target: Cathepsin S (UniProt P25774); assay: Cathepsin enzyme inhibition assay (fluorogenic peptide substrate Z-Val-Val-Arg-AMC), Cathepsin S; assay type: biochemical, human and mouse; settings: enzyme 1 nM, substrate 20 μM, pH 6.5; read-out: CatS IC50
Protocol: as §1, §2, §3, §4, §5
Enzyme is added to the substance dilutions in 96-well microtitre plates and the reaction is started with substrate. […] IC50 are calculated by standard methods. The results are expressed in μM in the following table.

N#CC1(NC(=O)[C@@H]2C[C@@H](S(=O)(=O)c3ccc(Br)cc3C(F)(F)F)CN2)CC1 [Example 18, (2S,4R)-4-(4-Bromo-2-trifluoromethyl-benzenesulfonyl)-pyrrolidine-2-carboxylic acid (1-cyano-cyclopropyl)-amide hydrochloride]
IC50 [1]: 30.3 µM | IC50 [2]: 0.0033 µM

N#CC1(NC(=O)[C@@H]2C[C@@H](S(=O)(=O)c3ccc(-n4cccn4)cc3C(F)(F)F)CN2)CC1 [Example 19, (2S,4R)-4-(4-Pyrazol-1-yl-2-trifluoromethyl-benzenesulfonyl)-pyrrolidine-2-carboxylic acid (1-cyano-cyclopropyl)-amide hydrochloride]
IC50 [1]: ≥ 25 µM | IC50 [2]: 0.0013 µM

N#CC1(NC(=O)[C@@H]2C[C@@H](S(=O)(=O)c3ccc(-n4ccnc4)cc3C(F)(F)F)CN2)CC1 [Example 20, (2S,4R)-4-(4-Imidazol-1-yl-2-trifluoromethyl-benzenesulfonyl)-pyrrolidine-2-carboxylic acid (1-cyano-cyclopropyl)-amide hydrochloride]
IC50 [1]: ≥ 25 µM | IC50 [2]: 0.001 µM

CN1CCN(c2ccc(S(=O)(=O)[C@H]3CN[C@H](C(=O)NC4(C#N)CC4)C3)c(C(F)(F)F)c2)CC1 [Example 21, (2S,4R)-4-[4-(4-Methyl-piperazin-1-yl)-2-trifluoromethyl-benzenesulfonyl]-pyrrolidine-2-carboxylic acid (1-cyano-cyclopropyl)-amide hydrochloride]
IC50 [1]: 40.8 µM | IC50 [2]: 0.0008 µM

N#CC1(NC(=O)[C@@H]2C[C@@H](S(=O)(=O)c3ccc(-n4cnc5ccccc54)cc3C(F)(F)F)CN2)CC1 [Example 22, (2S,4R)-4-(4-Benzoimidazol-1-yl-2-trifluoromethyl-benzenesulfonyl)-pyrrolidine-2-carboxylic Acid (1-cyano-cyclopropyl)-amide hydrochloride]
IC50 [1]: ≥ 25 µM | IC50 [2]: 0.0005 µM

Cc1ccc(=O)n(-c2ccc(S(=O)(=O)[C@H]3CN[C@H](C(=O)NC4(C#N)CC4)C3)c(C(F)(F)F)c2)n1 [Example 23, (2S,4R)-4-[4-(3-M ethyl-6-oxo-6H-pyridazin-1-yl)-2-trifluoromethyl-benzenesulfonyl]-pyrrolidine-2-carboxylic acid (1-cyano-cyclopropyl)-amide hydrochloride]
IC50 [1]: ≥ 25 µM | IC50 [2]: 0.0009 µM

Cc1nccn1-c1ccc(S(=O)(=O)[C@H]2CN[C@H](C(=O)NC3(C#N)CC3)C2)c(C(F)(F)F)c1 [Example 24, (2S,4R)-4-[4-(2-M ethyl-imidazol-1-yl)-2-trifluoromethyl-benzenesulfonyl]-pyrrolidine-2-carboxylic acid (1-cyano-cyclopropyl)-amide hydrochloride]
IC50 [1]: ≥ 25 µM | IC50 [2]: 0.0026 µM

N#CC1(NC(=O)[C@@H]2C[C@@H](S(=O)(=O)c3ccc(-n4ccnc4-c4ccccc4)cc3C(F)(F)F)CN2)CC1 [Example 25, (2S,4R)-4-[4-(2-Phenyl-imidazol-1-yl)-2-trifluoromethyl-benzenesulfonyl]-pyrrolidine-2-carboxylic acid (1-cyano-cyclopropyl)-amide hydrochloride]
IC50 [1]: ≥ 25 µM | IC50 [2]: 0.0023 µM

N#CC1(NC(=O)[C@@H]2C[C@@H](S(=O)(=O)c3ccc(N4CCCC4=O)cc3C(F)(F)F)CN2)CC1 [Example 26, (2S,4R)-4-[4-(2-Oxo-pyrrolidin-1-yl)-2-trifluoromethyl-benzenesulfonyl]-pyrrolidine-2-carboxylic acid (1-cyano-cyclopropyl)-amide hydrochloride]
IC50 [1]: ≥ 25 µM | IC50 [2]: 0.0028 µM

N#CC1(NC(=O)[C@@H]2C[C@@H](S(=O)(=O)c3ccc(N4CCOC4=O)cc3C(F)(F)F)CN2)CC1 [Example 27, (2S,4R)-4-[4-(2-oxo-oxazolidin-3-yl)-2-trifluoromethyl-benzenesulfonyl]-pyrrolidine-2-carboxylic acid (1-cyano-cyclopropyl)-amide hydrochloride]
IC50 [1]: ≥ 25 µM | IC50 [2]: 0.0022 µM

N#CC1(NC(=O)[C@@H]2C[C@@H](S(=O)(=O)c3ccc(N4CCC(F)(F)C4)cc3C(F)(F)F)CN2)CC1 [Example 28, (2S,4R)-4-[4-(3,3-Difluoro-pyrrolidin-1-yl)-2-trifluoromethyl-benzenesulfonyl]-pyrrolidine-2-carboxylic acid (1-cyano-cyclopropyl)-amide hydrochloride]
IC50 [1]: ≥ 25 µM | IC50 [2]: 0.0015 µM

N#CC1(NC(=O)[C@@H]2C[C@@H](S(=O)(=O)c3ccc(N4CCOCC4)cc3C(F)(F)F)CN2)CC1 [Example 29, (2S,4R)-4-(4-Morpholin-4-yl-2-trifluoromethyl-benzenesulfonyl)-pyrrolidine-2-carboxylic acid (1-cyano-cyclopropyl)-amide hydrochloride]
IC50 [1]: 39.9 µM | IC50 [2]: 0.0008 µM

N#CC1(NC(=O)[C@@H]2C[C@@H](S(=O)(=O)c3ccc(N4CCOCC4=O)cc3C(F)(F)F)CN2)CC1 [Example 30, (2S,4R)-4-[4-(3-Oxo-morpholin-4-yl)-2-trifluoromethyl-benzenesulfonyl]-pyrrolidine-2-carboxylic acid (1-cyano-cyclopropyl)-amide hydrochloride]
IC50 [1]: ≥ 25 µM | IC50 [2]: 0.003 µM

N#CC1(NC(=O)[C@@H]2C[C@@H](S(=O)(=O)c3ccc(-n4ccccc4=O)cc3C(F)(F)F)CN2)CC1 [Example 31, (2S,4R)-4-[4-(2-Oxo-2H-pyridin-1-yl)-2-trifluoromethyl-benzenesulfonyl]-pyrrolidine-2-carboxylic acid (1-cyano-cyclopropyl)-amide hydrochloride]
IC50 [1]: ≥ 25 µM | IC50 [2]: 0.002 µM

N#CC1(NC(=O)[C@@H]2C[C@@H](S(=O)(=O)c3ccc(-n4ccncc4=O)cc3C(F)(F)F)CN2)CC1 [Example 32, (2S,4R)-4-[4-(2-Oxo-2H-pyrazin-1-yl)-2-trifluoromethyl-benzenesulfonyl]-pyrrolidine-2-carboxylic acid (1-cyano-cyclopropyl)-amide hydrochloride]
IC50 [1]: ≥ 25 µM | IC50 [2]: 0.005 µM

CC(C)(C#N)NC(=O)[C@@H]1C[C@@H](S(=O)(=O)c2ccccc2Cl)CN1C(=O)OC(C)(C)C [Example 33, (2S,4R)-4-(2-Chloro-benzenesulfonyl)-2-[(cyano-dimethyl-methyl)-carbamoyl]-pyrrolidine-1-carboxylic acid tert-butyl ester]
IC50 [1]: ≥ 25 µM | IC50 [2]: 0.675 µM

CC(C)(C)OC(=O)N1C[C@H](S(=O)(=O)c2ccccc2Cl)C[C@H]1C(=O)NC1(C#N)CCC1 [Example 34, (2S,4R)-4-(2-Chloro-benzenesulfonyl)-2-(1-cyano-cyclobutylcarbamoyl)-pyrrolidine-1-carboxylic acid tert-butyl ester]
IC50 [1]: ≥ 25 µM | IC50 [2]: 0.766 µM

CC(C)(C)OC(=O)N1C[C@H](S(=O)(=O)c2ccccc2Cl)C[C@H]1C(=O)NC1(C#N)CCCCC1 [Example 35, (2S,4R)-4-(2-Chloro-benzenesulfonyl)-2-(1-cyano-cyclohexylcarbamoyl)-pyrrolidine-1-carboxylic acid tert-butyl ester]
IC50 [1]: ≥ 25 µM | IC50 [2]: 4.1 µM

CC(C)(C)OC(=O)N1C[C@H](S(=O)(=O)c2ccccc2Cl)C[C@H]1C(=O)NC(C#N)c1ccccc1 (stereo partly drawn) [Example 36, (2S,4R)-4-(2-Chloro-benzenesulfonyl)-2-[(cyano-phenyl-methyl)-carbamoyl]-pyrrolidine-1-carboxylic acid tert-butyl ester]
IC50 [1]: 1.27 µM | IC50 [2]: 0.0005 µM

CC(C)(C)OC(=O)N1C[C@H](S(=O)(=O)c2ccccc2Cl)C[C@H]1C(=O)NC(C)(C#N)c1ccccc1 (stereo partly drawn) [Example 37, (2S,4R)-4-(2-Chloro-benzenesulfonyl)-2-[(cyano-methyl-phenyl-methyl)-carbamoyl]-pyrrolidine-1-carboxylic acid tert-butyl ester]
IC50 [1]: ≥ 25 µM | IC50 [2]: 1.03 µM

CC(C)(C)OC(=O)N1C[C@H](S(=O)(=O)c2ccccc2C(F)(F)F)C[C@H]1C(=O)NC(C#N)C1CC1 (stereo partly drawn) [Example 38, (2S,4R)-2-[(Cyano-cyclopropyl-methyl)-carbamoyl]-4-(2-trifluoromethyl-benzenesulfonyl)-pyrrolidine-1-carboxylic acid tert-butyl ester]
IC50 [1]: ≥ 25 µM | IC50 [2]: 0.005 µM

Cc1ccc(S(=O)(=O)[C@@H]2C[C@@H](C(=O)NC3(C#N)CC3)N(C(=O)OC(C)(C)C)C2)c(C)c1 [Example 39, (2S,4R)-2-(1-Cyano-cyclopropylcarbamoyl)-4-(2,4-dimethyl-benzenesulfonyl)-pyrrolidine-1-carboxylic acid tert-butyl ester]
IC50 [1]: 50.2 µM | IC50 [2]: 0.0022 µM

Cc1cc(Cl)ccc1S(=O)(=O)[C@@H]1C[C@@H](C(=O)NC2(C#N)CC2)N(C(=O)OC(C)(C)C)C1 [Example 40, (2S,4R)-4-(4-Chloro-2-methyl-benzenesulfonyl)-2-(1-cyano-cyclopropylcarbamoyl)-pyrrolidine-1-carboxylic acid tert-butyl ester]
IC50 [1]: 41.4 µM | IC50 [2]: 0.0052 µM

CC(C)(C)OC(=O)N1C[C@H](S(=O)(=O)c2cccc(Cl)c2Cl)C[C@H]1C(=O)NC1(C#N)CC1 [Example 41, (2S,4R)-2-(1-Cyano-cyclopropylcarbamoyl)-4-(2,3-dichloro-benzenesulfonyl)-pyrrolidine-1-carboxylic acid tert-butyl ester]
IC50 [1]: ≥ 25 µM | IC50 [2]: 0.0312 µM

Reference: patent publication US8163793B2, “Proline derivatives” (Hoffman-La Roche Inc., priority 2009, dated 2012)
